Experimental findings from US12630536B2, “Cyanotriazine derivative, preparation method therefor, and application thereof” (Chengdu Fanxi Biopharma Co., LTD., priority 2020, dated 2026) are described below.

Where two headings read alike, the source gives them in different places.

Assay [1] concerns TR beta-UAS-bla HEK 293T Cells. The assay can be described thus: TR cell-based agonist detection, β-lactamase reporter (LiveBLAzer FRET B/G), TR beta. To be noted: for Emax: read-out: Maximum activity ratio (A460/A530); for EC50: read-out: TR_β_EC50. Here is the method: (§1) A method for testing a THR-α/β activation activity of a compound by an in-vitro cell level was as follows.
(§2) Compounds were transferred to a 384-well plate by an ECHO liquid workstation, and each compound was diluted by 3 times with 10 gradient concentrations, which was in triplicate. 1.5×10^4 DMEM-cultured cells (TR beta-UAS-bla HEK 293T Cells) or 1.0×10^4 TR alpha-UAS-bla HEK 293T Cells were placed in the 384-well plate. HEK 293T-TR beta was incubated in an incubator for 16 hours, and HEK 293T-TR alpha was incubated in an incubator for 24 hours. A LiveBLAzer™-FRET B/G (CCF4-AM) substrate was added into the cell plate to detect expression of β-lactamase in cells, and under excitation of 409 nm, a product produced fluorescence with a wavelength of 447 nm. When the β-lactamase was not expressed, under excitation of 409 nm, fluorescence with a wavelength of 520 nm was directly produced through FRET. Combination between the compound and the protein was determined by detecting a ratio of the two kinds of fluorescence (blue/green, 460 nm/530 nm), thus calculating EC50 of the compound. […] Calculation of a factor Z (greater than 0.5) would be used for monitoring a stability of each experiment.

Assay [2] has as its target T1, THR-α ligand-binding domain (H6-THR-α) (Homo sapiens, UniProt P10827).
T1 construct: made in house; host or cells: Escherichia coli BL21 (DE3), vector pET28a
T1 sequence (P10827 148-410 isoform P10827-2 limits assumed): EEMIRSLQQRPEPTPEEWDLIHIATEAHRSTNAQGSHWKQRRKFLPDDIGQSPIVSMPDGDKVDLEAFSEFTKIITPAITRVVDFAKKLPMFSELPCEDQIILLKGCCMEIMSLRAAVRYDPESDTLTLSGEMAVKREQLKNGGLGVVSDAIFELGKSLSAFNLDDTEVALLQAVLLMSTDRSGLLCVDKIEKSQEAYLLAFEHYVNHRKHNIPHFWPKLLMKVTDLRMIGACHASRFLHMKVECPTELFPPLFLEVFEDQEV
T1 sequence (P19793 225-462 partner limits assumed): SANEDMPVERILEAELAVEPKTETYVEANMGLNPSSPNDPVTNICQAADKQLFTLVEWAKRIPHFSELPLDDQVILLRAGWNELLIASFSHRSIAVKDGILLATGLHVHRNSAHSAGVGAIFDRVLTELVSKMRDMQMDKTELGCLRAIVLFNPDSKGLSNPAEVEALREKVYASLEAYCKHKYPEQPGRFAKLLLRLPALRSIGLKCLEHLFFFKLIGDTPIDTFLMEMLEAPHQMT
T1 sequence (Q15596 679-703 partner limits assumed): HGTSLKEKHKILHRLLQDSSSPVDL
Description: Co-activated peptide recruitment test of THR-α/RXR/GRIP1 (TR_LBD agonist detection, HTRF). To be noted: for EC50: Detection of TR_LBD agonist, read-out: TR_α_EC50; for Maximum activity ratio (A520/A495) / Measurement of cpd/T3 (maximum ratio): TR_LBD agonist, TR_α; for Measurement of cpd/T3 (maximum ratio): maximum relative to T3. The format is biochemical. On the procedure:
(§3) A ligand binding domain of THR-β (amino acids 148-410) (H6-THR-β) and a ligand binding domain of THR-α (amino acids 202-461) (H6-TRα) were cloned into E. coli expression vector pET28a (Novagen, Milwaukee, Wis.) containing N-terminal six His sequences. The resulting recombinant six-His-tagged protein was produced in E. coli BL21(DE3) cells. The cells were grown in Terrific Broth (self-used self-prepared Bacto tryptone (3.3%, w/v), Difico yeast extract (2.0%, w/v) and NaCl (0.5%, w/v) medium), incubated at 25° C. for 24 hours using a shake flask in 0.2 mM IPTG, harvested or dissolved with 5 volumes of buffer A (0.05 M Tris, 0.3 M NaCl, 1% W/V betaine, 0.01 M imidazole, 0.02 M b-mercaptoethanol, pH 8.0). Lysozyme (1.0 mg/ml, Sigma) and CompleteProtease Inhibitor Cocktail (Roche Diagnostics Gmbh) were added to the slurry and the solution was sonicated for one minute and 5 times at 4° C. The suspension was centrifuged at 127,300 RCF for 2 hours in a Ti45 Beckmann rotor and the supernatant was loaded onto an NI NTAAgarose (Quigen 30210) column. After washing with the buffer A, […] or H6-THR-α was eluted with the buffer A containing 0.25 M imidazole.
(§4) 30 microliters of H6-THR-β (50 nM) or H6-THR-α in 50 mM Hepes, pH 7.0, 1 mM DTT, 0.05% NP40 and 0.2 mg/ml BSA (binding buffer) were mixed with an equal volume of EE-RxRα (50 nM) in the binding buffer. […] Aliquot ([…]) was transferred to a 384-well black microtiter plate. HTRF signal was read on a Victor5 reader (PerkinElmer Life and Analytical Sciences). EC50 was calculated.
(§5) Gene clones expressing a ligand-binding domain (amino acids 148-410) of THR-β (H6-THR-β) and a ligand-binding domain (amino acids 202-461) of THR-α (H6-THR-α) were inserted into an Escherichia coli expression vector pET28a, and the expression vector contained one N-terminal 6-His sequence. The expression vector was introduced into an Escherichia coli BL21 (DE3) strain to produce a recombinant protein with a His tag. […] After finishing culturing, a bacterium in culture was collected, and the collected bacterium was resuspended with a lysis solution (0.05 M Tris, 0.3 M NaCl, 1% W/V betaine, 0.01 M imidazole, 0.02 M β-mercaptoethanol, and pH 8.0) with a volume 5 times that of the bacterium, and lysozyme and protease inhibitors were added at the same time, the treated bacteria was subjected to ultrasonic lysis (5 times per minute) in ice bath (4° C.). A lysed suspension was centrifuged at 127300 RCF for 2 hours, a supernatant was loaded on a NI_NTA agarose (Quigen 30210) column, and after washing with a buffer A, an H6-TRβ or H6-TRα protein was eluted with the buffer A containing 0.25 M imidazole.
(§6) A human retinol X receptor (amino acid 225-462) (RxRα) was subjected to engineering modification, so that an N-terminal of the human retinol X receptor had His6 and EE(EFMPME) tags, and then the human retinol X receptor was cloned into a pACYC vector, and produced a His6 EEtagged protein in Escherichia coli. IPTG with a final concentration of 0.1 mM was added into the culture medium for induction, and cultured in a shaking flask at 18° C. for 18 hours. After finishing culturing, a bacterium in culture was collected, and the collected bacterium was re-suspended with a lysis solution (0.05 M Tris, 0.3 M NaCl, 1% W/V betaine, 0.01 M imidazole, 0.02 β-mercaptoethanol, and pH 8.0) with a volume 5 times that of the bacterium, lysozyme and protease inhibitors were added at the same time, and stirred at 4° C. for 30 minutes. Then, a suspension was subjected to an ultrasonic treatment at 4° C. for 30 seconds for 5 times. The suspension was collected, and centrifuged at 12000 RCF for 20 minutes. A supernatant was collected, and the supernatant was filtered with a membrane with a pore size of 0.45 μm, and then added with 0.5% NP-40.

In assay [3] the target is T2, THR-β ligand-binding domain (H6-THR-β) (Homo sapiens, UniProt P10828).
T2 construct: made in house; host or cells: Escherichia coli BL21 (DE3), vector pET28a
T2 sequence (P10828 217-461 limits assumed): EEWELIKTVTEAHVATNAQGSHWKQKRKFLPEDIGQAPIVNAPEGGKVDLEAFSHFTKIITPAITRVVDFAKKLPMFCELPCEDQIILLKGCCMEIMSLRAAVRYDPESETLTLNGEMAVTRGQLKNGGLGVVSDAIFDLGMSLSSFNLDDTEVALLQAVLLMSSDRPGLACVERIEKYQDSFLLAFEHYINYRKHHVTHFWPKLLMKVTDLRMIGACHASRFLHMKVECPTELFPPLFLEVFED
T2 sequence (P19793 225-462 partner limits assumed): T1 sequence (P19793 225-462 partner limits assumed)
T2 sequence (Q15596 679-703 partner limits assumed): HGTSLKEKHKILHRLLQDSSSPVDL
Description: Co-activated peptide recruitment test of THR-β/RXR/GRIP1 (TR_LBD agonist detection, HTRF). The format is biochemical. To be noted: for EC50: Detection of TR_LBD agonist, read-out: TR_beta_EC50; for Measurement of cpd/T3 (maximum ratio) / Maximum activity ratio (A520/A495) / α/β: TR_LBD agonist; for Measurement of cpd/T3 (maximum ratio) / Maximum activity ratio (A520/A495): TR_β; for Measurement of cpd/T3 (maximum ratio): maximum relative to T3; for α/β: ratio TR_α EC50 / TR_β EC50. On the procedure:
as §3, §4, §5, §6
(In general: TR-FRET usually uses a lanthanide donor and a delayed reading to cut background.)

The test system of assay [4] is TR alpha-UAS-bla HEK 293T Cells. Description: TR cell-based agonist detection, β-lactamase reporter (LiveBLAzer FRET B/G), TR alpha. To be noted: for Emax: HEK-293T, 24 h, read-out: Maximum activity ratio; for EC50: Detection of TR_cell-based agonist, HEK 293T-TR alpha, 24 hours, read-out: TR_α_EC50. Here is the method: as §1, §2
The mark [5] stands for this setting: Homo sapiens, HEK-293T, 16 h, TR_cell-based agonist, TR_β.
The mark [6] stands for this setting: Homo sapiens, Detection of TR_cell-based agonist, HEK 293T-TR beta, 16 hours.
Where [7] appears, read: Homo sapiens, TR_cell-based agonist, TR_α.

For the molecule `Cn1cnc2cc(Oc3c(Cl)cc(-n4nc(C#N)c(=O)[nH]c4=O)cc3Cl)ccc21` [Compound 2, 2-(3,5-dichloro-4-((1-methyl-1H-benzo[d]imidazol-5-yl)oxy)phenyl)-3,5-dioxo-2,3,4,5-tetrahydro-1,2,4-triazine-6-carbonitrile], the values for the Emax in assay [1] (setting [5]) and in assay [4] (setting [7]) were 14.5% and 35%, respectively. Further, the EC50 in assay [1] (setting [6]) was over 20000 nM; in assay [2], over 5000 nM; in assay [3], 154 nM; in assay [4] (Homo sapiens), over 20000 nM. The “Measurement of cpd/T3 (maximum ratio)” value in assay [3] was determined as 22.1%.

In the case of `Cn1cnc2cc(Oc3c(Br)cc(-n4nc(C#N)c(=O)[nH]c4=O)cc3Br)ccc21` [Compound 4, 2-(3,5-dibromo-4-((1-methyl-1H-benzo[d]imidazol-5-yl)oxy)phenyl)-3,5-dioxo-2,3,4,5-tetrahydro-1,2,4-triazine-6-carbonitrile], the Emax in assay [1] (setting [5]) was determined as 16.6%; in assay [4] (setting [7]), 40%. For the same molecule, the EC50 was over 20000 nM in assay [1] (setting [6]), 581 nM in assay [2], 51.7 nM in assay [3] and over 20000 nM in assay [4] (Homo sapiens). The “Maximum activity ratio (A520/A495)” value in assay [2] amounted to 1.59; in assay [3], 1.46. For the same molecule, the entries for the “Measurement of cpd/T3 (maximum ratio)” value in assay [2] and in assay [3] were 29.5% and 26.6%, respectively. Further, the α/β in assay [3] is 11.25.

As for `N#Cc1nn(-c2cc(Cl)c(Oc3ccc4ncn(CCN5CCCC5)c4c3)c(Cl)c2)c(=O)[nH]c1=O` [Compound 5], the EC50 in assay [1] (Detection of TR_cell-based agonist, HEK 293T-TR beta, 16 hours) is over 20000 nM. The “Maximum activity ratio (A460/A530)” value in assay [1] (TR_cell-based agonist, TR_β) was 0.134. Further, in assay [2], the EC50 was found to be 1310 nM, the “Maximum activity ratio (A520/A495)” value is 2.45 and the “Measurement of cpd/T3 (maximum ratio)” value was found to be 45.5%. In addition, in assay [3], the EC50 was determined as 45.5 nM, the “Maximum activity ratio (A520/A495)” value is given as 2.69, the “Measurement of cpd/T3 (maximum ratio)” value is on record as 49.1% and the α/β is listed as 28.81. Moreover, the EC50 in assay [4] was over 20000 nM. Besides, in assay [4] (TR_cell-based agonist, TR_α), the Maximum activity ratio came out at 0.42.

Turning to `N#Cc1nn(-c2cc(Cl)c(Oc3ccc4ncn(C5CCNC5)c4c3)c(Cl)c2)c(=O)[nH]c1=O` (centres unmarked) [Compound 6], in assay [3], the EC50 was over 5000 nM.

For the molecule `N#Cc1nn(-c2cc(Cl)c(Oc3ccc4ncn(C5CCN(Cc6ccccc6)C5)c4c3)c(Cl)c2)c(=O)[nH]c1=O` (centres unmarked) [Compound 7, 2-(4-((1-(1-benzylpyrrolidin-3-yl)-1H-benzo[d]imidazol-6-yl)oxy)-3,5-dichlorophenyl)-3,5-dioxo-2,3,4,5-tetrahydro-1,2,4-triazine-6-carbonitrile], the results for the Emax in assay [1] (setting [5]) and in assay [4] (setting [7]) were 11.6% and 19%, respectively. Also, the EC50 in assay [1] (setting [6]) was over 20000 nM; in assay [2] it was over 5000 nM; in assay [3] it was 13.4 nM; in assay [4] (Homo sapiens), over 20000 nM. In addition, the “Measurement of cpd/T3 (maximum ratio)” value in assay [3] is 22.6%.

As to `N#Cc1nn(-c2cc(Cl)c(Oc3ccc4ncn(C5CCCC5)c4c3)c(Cl)c2)c(=O)[nH]c1=O` [Compound 8, 2-(3,5-dichloro-4-((1-cyclopen-tyl-1H-benzo[d]imidazol-6-yl)oxy)phenyl)-3,5-dioxo-2,3,4,5-tetrahydro-1,2,4-triazine-6-carbonitrile], the Emax came to 33.9% in assay [1] (setting [5]) and 72% in assay [4] (setting [7]). Also, the EC50 worked out at 596 nM in assay [1] (setting [6]), 55 nM in assay [2], 5.48 nM in assay [3] and 2200 nM in assay [4] (Homo sapiens). For the same molecule, the “Measurement of cpd/T3 (maximum ratio)” value in assay [1] (TR_cell-based agonist, TR_β, maximum relative to T3) amounted to 6.2%; in assay [2], 43.0%; in assay [3], 54.0%. Also, the α/β is on record as 3.69 in assay [1] (TR_cell-based agonist, ratio TR_α EC50 / TR_β EC50) and 10.04 in assay [3]. Further, the “Maximum activity ratio (A520/A495)” value in assay [2] was 2.32; in assay [3], 2.96. Besides, the “Test cpd/T3 (maximum ratio)” value in assay [4] (TR_cell-based agonist, TR_α, maximum relative to T3) was 32.7%.

`N[C@@H](Cc1cc(I)c(Oc2ccc(O)c(I)c2)c(I)c1)C(=O)O` [Compound T3, 3,5,3′-tri-iodine-L-thyronine, reference compound]: the EC50 stood at 0.325 nM in assay [1] (Homo sapiens, HEK-293T, 16 h) and 0.055 nM in assay [4] (Homo sapiens).
